In patent US20240116985A1, “STAPLED PEPTIDES AND METHODS THEREOF” (priority 2020, published 2024) one finds IC50 data, which are given here for eleven compounds.

In assay [1] the target is T1, beta-catenin/TCF4 engagement (Homo sapiens, UniProt P35222).
T1 construct: expressed in transfected cells; host or cells: HEK293
T1 sequence (P35222 1-781): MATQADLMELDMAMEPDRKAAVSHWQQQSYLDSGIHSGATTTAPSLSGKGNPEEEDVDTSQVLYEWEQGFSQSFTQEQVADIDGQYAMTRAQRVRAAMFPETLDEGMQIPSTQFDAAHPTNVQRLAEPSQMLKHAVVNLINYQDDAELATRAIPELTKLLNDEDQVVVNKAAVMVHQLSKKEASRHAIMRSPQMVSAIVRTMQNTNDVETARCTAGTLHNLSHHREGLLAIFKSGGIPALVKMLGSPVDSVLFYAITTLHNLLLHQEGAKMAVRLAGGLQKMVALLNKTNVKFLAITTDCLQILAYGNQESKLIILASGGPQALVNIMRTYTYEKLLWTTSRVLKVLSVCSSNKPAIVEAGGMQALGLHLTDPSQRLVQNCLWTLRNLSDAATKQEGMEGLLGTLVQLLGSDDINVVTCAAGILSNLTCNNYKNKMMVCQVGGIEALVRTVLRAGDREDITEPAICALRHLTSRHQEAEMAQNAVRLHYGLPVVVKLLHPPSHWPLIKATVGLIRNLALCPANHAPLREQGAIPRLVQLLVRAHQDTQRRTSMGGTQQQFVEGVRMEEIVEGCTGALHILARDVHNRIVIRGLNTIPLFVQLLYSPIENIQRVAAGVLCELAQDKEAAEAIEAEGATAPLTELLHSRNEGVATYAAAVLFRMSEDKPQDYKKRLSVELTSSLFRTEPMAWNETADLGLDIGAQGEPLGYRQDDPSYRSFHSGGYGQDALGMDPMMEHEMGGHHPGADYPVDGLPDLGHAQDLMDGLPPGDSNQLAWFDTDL
Kind of assay: Nano-BRET target engagement assay (B-cat-Halo & TCF4-Luc in HEK293 cells). It is filed as cell-based. In general terms: In BRET a luciferase serves as donor, and the signal depends on an acceptor being close.

The target in assay [2] is T2, full-length beta-Catenin (Uniprot ID P35222) (Homo sapiens, UniProt P35222).
T2 construct: 10 nM full-length beta-Catenin (Uniprot ID P35222)
T2 sequence (P35222 1-781): T1 sequence (P35222 1-781)
In words: Fluorescence polarization IC50 (beta-catenin / 5FAM-TCF4 10-53 competition). The assay is classed as binding. Background: In fluorescence polarisation assays a small probe gives low polarisation when free and higher when bound to something large.

The mark [3] stands for this setting: absolute IC50; read-out: NanoBRET Abs IC50.
Setting [4] is: fluorescence polarization; read-out: beta-Catenin FP IC50.

pIC50: −log10 of the molar value. Where two headings read alike, the source gives them in different places.

What is called pIC50 is the IC50 on a negative log10 scale, so that one unit is a factor of ten. For `CC(=O)N1CCC[C@]12CC=CCCCC1(CCCC=CCCCOC(=O)N3CC[C@@](C(=O)N[C@@H](Cc4ccsc4)C(=O)N[C@@H](Cc4csc5ccccc45)C(=O)N[C@@H](CC(N)=O)C(=O)N[C@@H](C)C(=O)NC(C)(C)C(=O)N[C@@H](C)C(=O)NC(C)(C)C(=O)N[C@@H](C)C(N)=O)(C3)NC(=O)[C@H](CC(C)C)NC(=O)[C@H](Cc3ccccc3)NC(=O)[C@H](C)NC(=O)[C@H](C)NC(=O)[C@H](Cc3cccc(C(=O)O)c3)NC(=O)[C@H](CC(=O)O)NC1=O)NC(=O)[C@H](CC(C)(C)C)NC(=O)[C@H](CC(=O)O)NC2=O` (stereo partly drawn) [I-2272, Ac-PL3-Asp-Npg-B5-Asp-3COOHF-Ala-Ala-Phe-Leu-PyrS2-3Thi-BztA-Asn-Ala-Aib-Ala-Aib-Ala-NH2], the pIC50 in assay [1] (setting [3]) was 5.52; in assay [2] (setting [4]) it was 7.37.

As for `CC(=O)N1CCC[C@]12CC=CCCCC1(CCCC=CCCCOC(=O)N3CC[C@@](C(=O)N[C@@H](Cc4ccsc4)C(=O)N[C@@H](Cc4csc5ccccc45)C(=O)N[C@@H](CC(N)=O)C(=O)N[C@@H](C)C(=O)NC(C)(C)C(=O)N[C@@H](C)C(=O)NC(C)(C)C(=O)N[C@@H](C)C(=O)NC(C)(C)C(=O)N[C@@H](C)C(N)=O)(C3)NC(=O)[C@H](CC(C)C)NC(=O)[C@H](Cc3ccccc3)NC(=O)[C@H](C)NC(=O)[C@H](C)NC(=O)[C@H](Cc3cccc(C(=O)O)c3)NC(=O)[C@H](CC(=O)O)NC1=O)NC(=O)[C@H](CC(C)(C)C)NC(=O)[C@H](CC(=O)O)NC2=O` (stereo partly drawn) [I-2273, Ac-PL3-Asp-Npg-B5-Asp-3COOHF-Ala-Ala-Phe-Leu-PyrS2-3Thi-BztA-Asn-Ala-Aib-Ala-Aib-Ala-Aib-Ala-NH2], the pIC50 in assay [1] (setting [3]) is 5.21; in assay [2] (setting [4]), 6.97.

Regarding `CC(=O)N1CCC[C@]12CC=CCCCC1(CCCC=CCCCOC(=O)N3CC[C@@](C(=O)N[C@@H](Cc4ccsc4)C(=O)N[C@@H](Cc4csc5ccccc45)C(=O)N[C@@H](CC(N)=O)C(=O)N[C@@H](CC(C)C)C(=O)N[C@@H](CC(C)C)C(=O)N[C@@H](CC(C)C)C(N)=O)(C3)NC(=O)[C@H](CC(C)C)NC(=O)[C@H](Cc3ccccc3)NC(=O)[C@H](C)NC(=O)[C@H](C)NC(=O)[C@H](Cc3cccc(C(=O)O)c3)NC(=O)[C@H](CC(=O)O)NC1=O)NC(=O)[C@H](CC(C)(C)C)NC(=O)[C@H](CC(=O)O)NC2=O` (stereo partly drawn) [I-2275, Ac-PL3-Asp-Npg-B5-Asp-3COOHF-Ala-Ala-Phe-Leu-PyrS2-3Thi-BztA-Asn-Leu-Leu-Leu-NH2], the results for the pIC50 in assay [1] (setting [3]) and in assay [2] (setting [4]) were 5.46 and 6.93, respectively.

Take `CC(=O)N1CCC[C@]12CC=CCCCC1(CCCC=CCCCOC(=O)N3CC[C@@](C(=O)N[C@@H](Cc4ccsc4)C(=O)N[C@@H](Cc4csc5ccccc45)C(=O)N[C@@H](CC(N)=O)C(=O)N[C@@H](C)C(=O)N[C@@H](CC(C)C)C(=O)N[C@@H](CC(C)C)C(N)=O)(C3)NC(=O)[C@H](CC(C)C)NC(=O)[C@H](Cc3ccccc3)NC(=O)[C@H](C)NC(=O)[C@H](C)NC(=O)[C@H](Cc3cccc(C(=O)O)c3)NC(=O)[C@H](CC(=O)O)NC1=O)NC(=O)[C@H](CC(C)(C)C)NC(=O)[C@H](CC(=O)O)NC2=O` (stereo partly drawn) [I-2277, Ac-PL3-Asp-Npg-B5-Asp-3COOHF-Ala-Ala-Phe-Leu-PyrS2-3Thi-BztA-Asn-Ala-Leu-Leu-NH2]: the negative-log IC50 (pIC50) in assay [1] (setting [3]) was 5.64; in assay [2] (setting [4]), 6.94.

As for `CC(=O)N1CCC[C@]12CC=CCCCC1(CCCC=CCCCOC(=O)N3CC[C@@](C(=O)N[C@@H](Cc4ccsc4)C(=O)N[C@@H](Cc4csc5ccccc45)C(=O)N[C@@H](CC(N)=O)C(=O)N[C@@H](C)C(=O)N[C@@H](CC(C)C)C(=O)N[C@@H](CC(C)C)C(N)=O)(C3)NC(=O)[C@H](CC(C)C)NC(=O)[C@H](Cc3ccccc3)NC(=O)[C@H](C)NC(=O)[C@H](C)NC(=O)[C@H](Cc3cccc(C(=O)O)c3)NC(=O)[C@H](CC(=O)O)NC1=O)NC(=O)[C@H](CC(C)(C)C)NC(=O)[C@H](CC(=O)O)NC2=O` (stereo partly drawn) [I-2278, Ac-PL3-Asp-Npg-B5-Asp-3COOHF-Ala-Ala-Phe-Leu-PyrS2-3Thi-BztA-Asn-Ala-Leu-Leu-NH2], the figures for the pIC50 in assay [1] (setting [3]) and in assay [2] (setting [4]) were 5.55 and 6.92, respectively.

Turning to `CC(=O)N1CCC[C@]12CC=CCCCC1(CCCC=CCCCOC(=O)N3CC[C@@](C(=O)N[C@@H](Cc4ccsc4)C(=O)N[C@@H](Cc4csc5ccccc45)C(=O)N[C@@H](CC(N)=O)C(=O)N[C@@H](CC(C)C)C(=O)N[C@@H](CC(C)C)C(=O)N[C@@H](CC(C)C)C(=O)N[C@@H](CC(C)C)C(=O)N[C@@H](CC(C)C)C(N)=O)(C3)NC(=O)[C@H](CC(C)C)NC(=O)[C@H](Cc3ccccc3)NC(=O)[C@H](C)NC(=O)[C@H](C)NC(=O)[C@H](Cc3cccc(C(=O)O)c3)NC(=O)[C@H](CC(=O)O)NC1=O)NC(=O)[C@H](CC(C)(C)C)NC(=O)[C@H](CC(=O)O)NC2=O` (stereo partly drawn) [I-2279, Ac-PL3-Asp-Npg-B5-Asp-3COOHF-Ala-Ala-Phe-Leu-PyrS2-3Thi-BztA-Asn-Leu-Leu-Leu-Leu-Leu-NH2], the figures for the pIC50 in assay [1] (read-out: NanoBRET Abs IC50; absolute IC50) and in assay [2] (read-out: beta-Catenin FP IC50; fluorescence polarization) were less than 4.70 and 5.14, respectively.

In the case of `CC(=O)N1CCC[C@]12CC=CCCCC1(CCCC=CCCCOC(=O)N3CC[C@@](C(=O)N[C@@H](Cc4ccsc4)C(=O)N[C@@H](Cc4csc5ccccc45)C(=O)N[C@@H](CC(N)=O)C(=O)N[C@@H](C)C(=O)N[C@@H](CC(C)C)C(=O)N[C@@H](C)C(=O)N[C@@H](CC(C)C)C(=O)N[C@@H](C)C(N)=O)(C3)NC(=O)[C@H](CC(C)C)NC(=O)[C@H](Cc3ccccc3)NC(=O)[C@H](C)NC(=O)[C@H](C)NC(=O)[C@H](Cc3cccc(C(=O)O)c3)NC(=O)[C@H](CC(=O)O)NC1=O)NC(=O)[C@H](CC(C)(C)C)NC(=O)[C@H](CC(=O)O)NC2=O` (stereo partly drawn) [I-2281, Ac-PL3-Asp-Npg-B5-Asp-3COOHF-Ala-Ala-Phe-Leu-PyrS2-3Thi-BztA-Asn-Ala-Leu-Ala-Leu-Ala-NH2], the pIC50 is 5.37 in assay [1] (setting [3]) and 6.86 in assay [2] (setting [4]).

Turning to `CC(=O)N1CCC[C@]12CC=CCCCC1(CCCC=CCCCOC(=O)N3CC[C@@](C(=O)N[C@@H](Cc4ccsc4)C(=O)N[C@@H](Cc4csc5ccccc45)C(=O)N[C@@H](CC(N)=O)C(=O)N[C@@H](C)C(=O)N[C@@H](CC(C)C)C(=O)N[C@@H](C)C(=O)N[C@@H](CC(C)C)C(=O)N[C@@H](C)C(N)=O)(C3)NC(=O)[C@H](CC(C)C)NC(=O)[C@H](Cc3ccccc3)NC(=O)[C@H](C)NC(=O)[C@H](C)NC(=O)[C@H](Cc3cccc(C(=O)O)c3)NC(=O)[C@H](CC(=O)O)NC1=O)NC(=O)[C@H](CC(C)(C)C)NC(=O)[C@H](CC(=O)O)NC2=O` (stereo partly drawn) [I-2282, Ac-PL3-Asp-Npg-B5-Asp-3COOHF-Ala-Ala-Phe-Leu-PyrS2-3Thi-BztA-Asn-Ala-Leu-Ala-Leu-Ala-NH2], the pIC50 in assay [1] (setting [3]) was 5.43; in assay [2] (setting [4]), 6.81.

With `CC(=O)N1CCC[C@]12CC=CCCCC1(CCCC=CCCCOC(=O)N3CC[C@@](C(=O)N[C@@H](Cc4ccsc4)C(=O)N[C@@H](Cc4csc5ccccc45)C(=O)N[C@@H](CC(N)=O)C(=O)N[C@@H](C)C(=O)N[C@@H](CC(C)C)C(=O)N[C@@H](C)C(=O)N[C@@H](CC(C)C)C(=O)N[C@@H](C)C(=O)N[C@@H](CC(C)C)C(=O)N[C@@H](C)C(N)=O)(C3)NC(=O)[C@H](CC(C)C)NC(=O)[C@H](Cc3ccccc3)NC(=O)[C@H](C)NC(=O)[C@H](C)NC(=O)[C@H](Cc3cccc(C(=O)O)c3)NC(=O)[C@H](CC(=O)O)NC1=O)NC(=O)[C@H](CC(C)(C)C)NC(=O)[C@H](CC(=O)O)NC2=O` (stereo partly shown) [I-2283], the pIC50 was 5.35 in assay [1] (setting [3]) and 5.54 in assay [2] (setting [4]).

Turning to `CC(=O)N1CCC[C@]12CC=CCCCC1(CCCC=CCCCOC(=O)N3CC[C@@](C(=O)N[C@@H](Cc4ccsc4)C(=O)N[C@@H](Cc4csc5ccccc45)C(=O)N[C@@H](CC(N)=O)C(=O)N[C@@H](C)C(=O)N[C@@H](CC(C)C)C(=O)N[C@@H](C)C(=O)N[C@@H](CC(C)C)C(=O)N[C@@H](C)C(=O)N[C@@H](CC(C)C)C(=O)N[C@@H](C)C(N)=O)(C3)NC(=O)[C@H](CC(C)C)NC(=O)[C@H](Cc3ccccc3)NC(=O)[C@H](C)NC(=O)[C@H](C)NC(=O)[C@H](Cc3cccc(C(=O)O)c3)NC(=O)[C@H](CC(=O)O)NC1=O)NC(=O)[C@H](CC(C)(C)C)NC(=O)[C@H](CC(=O)O)NC2=O` (stereo partly shown) [I-2284], the negative-log IC50 (pIC50) in assay [1] (setting [3]) was 4.89; in assay [2] (setting [4]), 5.57.

On to `CC(=O)N1CCC[C@]12CC=CCCCC1(CCCC=CCCCOC(=O)N3CC[C@@](C(=O)N[C@@H](Cc4ccsc4)C(=O)N[C@@H](Cc4ccc(F)c(Br)c4)C(=O)N[C@@H](CCC(N)=O)C(N)=O)(C3)NC(=O)[C@H](CC(C)C)NC(=O)[C@H](Cc3ccccc3)NC(=O)[C@H](C)NC(=O)[C@H](C)NC(=O)[C@H](Cc3cccc(C(=O)O)c3)NC(=O)[C@H](CC(=O)O)NC1=O)NC(=O)[C@H](CC(C)(C)C)NC(=O)[C@H](CC(=O)O)NC2=O` (stereo partly drawn) [I-2287, Ac-PL3-Asp-Npg-B5-Asp-3COOHF-Ala-Ala-Phe-Leu-PyrS2-3Thi-3Br4FF-Gln-NH2], for which the pIC50 was 5.15 in assay [1] (setting [3]) and 8.15 in assay [2] (setting [4]).
